# Source: ChEMBL document CHEMBL3991601, “The target landscape of clinical kinase drugs” (Science, 2017)
# Active and inactive are the calls of the source. For most assays here, no stated cut-off is given here; in the data, actives have a measured Kd and inactives only a lower limit.
# How the values were obtained:
# [1] = target: RAC-gamma serine/threonine-protein kinase (Homo sapiens, UniProt Q9Y243)
# [2] = target: Cyclin-dependent kinase 7 (Homo sapiens, UniProt P50613)
# [3] = target: ATP-dependent RNA helicase DDX3X (Homo sapiens, UniProt O00571)
# [4] = target: Eukaryotic translation initiation factor 2-alpha kinase 1 (Homo sapiens, UniProt Q9BQI3)
# [5] = target: T1, Dual specificity mitogen-activated protein kinase kinase 5 (Homo sapiens, UniProt Q13163)
# T1 sequence (Q13163 whole entry): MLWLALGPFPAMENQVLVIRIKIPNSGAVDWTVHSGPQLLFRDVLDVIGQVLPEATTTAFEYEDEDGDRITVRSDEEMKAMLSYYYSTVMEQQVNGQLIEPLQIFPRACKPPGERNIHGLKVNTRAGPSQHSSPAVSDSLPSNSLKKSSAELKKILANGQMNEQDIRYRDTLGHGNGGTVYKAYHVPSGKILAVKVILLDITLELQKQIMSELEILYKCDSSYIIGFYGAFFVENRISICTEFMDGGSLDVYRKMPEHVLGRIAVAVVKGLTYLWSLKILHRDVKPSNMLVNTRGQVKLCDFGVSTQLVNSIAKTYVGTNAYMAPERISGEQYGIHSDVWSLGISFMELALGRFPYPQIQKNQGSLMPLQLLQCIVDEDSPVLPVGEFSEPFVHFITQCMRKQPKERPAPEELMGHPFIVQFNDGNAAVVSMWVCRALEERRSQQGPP
# [6] = target: Mitogen-activated protein kinase kinase kinase kinase 1 (Homo sapiens, UniProt Q92918)
# [7] = target: T2, Serine/threonine-protein kinase Nek9 (Homo sapiens, UniProt Q8TD19)
# T2 sequence (Q8TD19 whole entry): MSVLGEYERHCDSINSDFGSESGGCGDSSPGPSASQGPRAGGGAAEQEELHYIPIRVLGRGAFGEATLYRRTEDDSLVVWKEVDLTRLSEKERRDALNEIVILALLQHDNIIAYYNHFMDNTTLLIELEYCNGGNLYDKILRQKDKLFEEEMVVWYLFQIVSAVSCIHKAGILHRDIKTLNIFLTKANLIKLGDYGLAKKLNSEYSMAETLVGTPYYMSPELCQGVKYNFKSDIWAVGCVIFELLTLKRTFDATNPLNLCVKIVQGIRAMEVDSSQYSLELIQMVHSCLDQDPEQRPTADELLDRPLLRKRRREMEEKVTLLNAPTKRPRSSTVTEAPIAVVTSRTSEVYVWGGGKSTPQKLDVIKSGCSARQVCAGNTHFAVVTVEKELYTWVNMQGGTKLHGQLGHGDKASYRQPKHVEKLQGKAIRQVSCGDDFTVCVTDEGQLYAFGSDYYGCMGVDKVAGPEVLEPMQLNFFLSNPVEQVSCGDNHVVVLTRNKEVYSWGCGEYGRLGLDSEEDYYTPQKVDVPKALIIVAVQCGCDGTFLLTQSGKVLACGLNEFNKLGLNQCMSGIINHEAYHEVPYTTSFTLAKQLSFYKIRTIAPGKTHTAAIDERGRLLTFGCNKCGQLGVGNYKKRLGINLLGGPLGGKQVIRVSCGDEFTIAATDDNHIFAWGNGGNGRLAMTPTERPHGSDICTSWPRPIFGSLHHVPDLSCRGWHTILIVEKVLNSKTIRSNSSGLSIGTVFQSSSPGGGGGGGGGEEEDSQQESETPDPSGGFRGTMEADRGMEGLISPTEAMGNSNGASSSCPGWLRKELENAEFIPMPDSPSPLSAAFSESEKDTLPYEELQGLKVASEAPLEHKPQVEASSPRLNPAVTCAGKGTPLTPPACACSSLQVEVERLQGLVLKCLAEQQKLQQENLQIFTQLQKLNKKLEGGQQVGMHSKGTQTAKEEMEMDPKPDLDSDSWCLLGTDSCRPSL
# [8] = target: T3, ATP-dependent 6-phosphofructokinase, platelet type (Homo sapiens, UniProt Q01813)
# T3 sequence (Q01813 whole entry): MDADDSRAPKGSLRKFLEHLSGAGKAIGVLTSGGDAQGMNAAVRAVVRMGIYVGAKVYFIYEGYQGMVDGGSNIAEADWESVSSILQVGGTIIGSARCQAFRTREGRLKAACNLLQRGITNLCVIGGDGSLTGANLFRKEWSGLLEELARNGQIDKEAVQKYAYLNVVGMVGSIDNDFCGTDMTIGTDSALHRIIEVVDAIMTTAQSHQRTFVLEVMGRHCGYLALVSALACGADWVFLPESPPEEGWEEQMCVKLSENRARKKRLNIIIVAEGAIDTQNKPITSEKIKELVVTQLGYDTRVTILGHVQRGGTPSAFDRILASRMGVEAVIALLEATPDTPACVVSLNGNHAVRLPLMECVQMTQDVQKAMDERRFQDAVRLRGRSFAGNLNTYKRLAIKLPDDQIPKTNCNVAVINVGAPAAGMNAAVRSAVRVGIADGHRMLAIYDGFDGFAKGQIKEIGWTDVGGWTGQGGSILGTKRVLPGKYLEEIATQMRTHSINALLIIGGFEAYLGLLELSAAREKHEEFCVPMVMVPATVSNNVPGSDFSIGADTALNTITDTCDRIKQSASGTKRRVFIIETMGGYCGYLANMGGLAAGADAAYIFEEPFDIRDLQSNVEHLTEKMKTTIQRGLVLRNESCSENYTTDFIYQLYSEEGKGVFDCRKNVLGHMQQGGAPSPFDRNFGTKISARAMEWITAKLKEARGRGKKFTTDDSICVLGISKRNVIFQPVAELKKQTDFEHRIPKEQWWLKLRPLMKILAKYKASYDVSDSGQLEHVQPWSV
# [9] = target: Serine/threonine-protein kinase N1 (Homo sapiens, UniProt Q16512)
# [10] = target: Ribosomal protein S6 kinase alpha-3 (Homo sapiens, UniProt P51812)
# [11] = target: TRAF2 and NCK-interacting protein kinase (Homo sapiens, UniProt Q9UKE5)
# [12] = target: T4, EKC/KEOPS complex subunit TP53RK (Homo sapiens, UniProt Q96S44)
# T4 sequence (Q96S44 whole entry): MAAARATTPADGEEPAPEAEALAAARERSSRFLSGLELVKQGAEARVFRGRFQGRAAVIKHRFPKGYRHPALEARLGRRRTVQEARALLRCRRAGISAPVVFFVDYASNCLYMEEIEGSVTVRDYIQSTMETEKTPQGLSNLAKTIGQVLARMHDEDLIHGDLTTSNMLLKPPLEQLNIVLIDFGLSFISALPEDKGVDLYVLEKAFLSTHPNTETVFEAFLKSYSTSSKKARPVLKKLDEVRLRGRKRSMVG
# ATP-dependent RNA helicase DDX3X, sequence (O00571 whole entry): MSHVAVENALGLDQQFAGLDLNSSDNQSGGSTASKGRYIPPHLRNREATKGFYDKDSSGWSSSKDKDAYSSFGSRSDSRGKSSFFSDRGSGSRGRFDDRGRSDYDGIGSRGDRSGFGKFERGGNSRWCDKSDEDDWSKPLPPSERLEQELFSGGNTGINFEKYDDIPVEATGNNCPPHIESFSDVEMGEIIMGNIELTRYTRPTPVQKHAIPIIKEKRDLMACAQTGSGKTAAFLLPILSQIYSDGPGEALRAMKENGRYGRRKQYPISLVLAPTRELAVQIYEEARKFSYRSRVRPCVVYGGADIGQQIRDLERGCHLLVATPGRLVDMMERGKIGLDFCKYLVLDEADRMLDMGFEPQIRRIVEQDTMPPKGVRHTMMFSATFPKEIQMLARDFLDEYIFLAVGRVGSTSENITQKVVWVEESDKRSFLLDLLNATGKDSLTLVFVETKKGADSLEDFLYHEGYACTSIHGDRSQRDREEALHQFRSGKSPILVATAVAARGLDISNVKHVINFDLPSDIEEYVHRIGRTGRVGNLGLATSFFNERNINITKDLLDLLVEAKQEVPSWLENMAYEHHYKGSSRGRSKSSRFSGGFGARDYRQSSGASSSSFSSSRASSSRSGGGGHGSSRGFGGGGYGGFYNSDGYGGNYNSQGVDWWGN
# Ribosomal protein S6 kinase alpha-3, sequence (P51812 whole entry): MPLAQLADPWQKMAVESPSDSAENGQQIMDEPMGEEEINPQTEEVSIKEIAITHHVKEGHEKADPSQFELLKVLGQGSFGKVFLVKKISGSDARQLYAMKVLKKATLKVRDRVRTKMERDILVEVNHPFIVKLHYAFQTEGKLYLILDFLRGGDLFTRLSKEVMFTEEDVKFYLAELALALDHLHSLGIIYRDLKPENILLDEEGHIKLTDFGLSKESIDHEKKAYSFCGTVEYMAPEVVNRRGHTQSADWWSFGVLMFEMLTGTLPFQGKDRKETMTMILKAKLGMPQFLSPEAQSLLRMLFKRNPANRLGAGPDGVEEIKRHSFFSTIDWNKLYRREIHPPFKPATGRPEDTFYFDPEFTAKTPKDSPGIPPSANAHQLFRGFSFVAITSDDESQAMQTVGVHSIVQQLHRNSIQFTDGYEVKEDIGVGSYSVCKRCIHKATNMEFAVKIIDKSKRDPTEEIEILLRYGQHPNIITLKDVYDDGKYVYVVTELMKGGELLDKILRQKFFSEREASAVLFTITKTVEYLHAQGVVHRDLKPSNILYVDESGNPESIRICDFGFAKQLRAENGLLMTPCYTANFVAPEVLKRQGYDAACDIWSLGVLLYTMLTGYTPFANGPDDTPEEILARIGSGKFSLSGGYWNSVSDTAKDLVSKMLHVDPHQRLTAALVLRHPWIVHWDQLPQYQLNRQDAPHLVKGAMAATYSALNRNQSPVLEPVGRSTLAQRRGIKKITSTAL
# Serine/threonine-protein kinase N1, sequence (Q16512 whole entry): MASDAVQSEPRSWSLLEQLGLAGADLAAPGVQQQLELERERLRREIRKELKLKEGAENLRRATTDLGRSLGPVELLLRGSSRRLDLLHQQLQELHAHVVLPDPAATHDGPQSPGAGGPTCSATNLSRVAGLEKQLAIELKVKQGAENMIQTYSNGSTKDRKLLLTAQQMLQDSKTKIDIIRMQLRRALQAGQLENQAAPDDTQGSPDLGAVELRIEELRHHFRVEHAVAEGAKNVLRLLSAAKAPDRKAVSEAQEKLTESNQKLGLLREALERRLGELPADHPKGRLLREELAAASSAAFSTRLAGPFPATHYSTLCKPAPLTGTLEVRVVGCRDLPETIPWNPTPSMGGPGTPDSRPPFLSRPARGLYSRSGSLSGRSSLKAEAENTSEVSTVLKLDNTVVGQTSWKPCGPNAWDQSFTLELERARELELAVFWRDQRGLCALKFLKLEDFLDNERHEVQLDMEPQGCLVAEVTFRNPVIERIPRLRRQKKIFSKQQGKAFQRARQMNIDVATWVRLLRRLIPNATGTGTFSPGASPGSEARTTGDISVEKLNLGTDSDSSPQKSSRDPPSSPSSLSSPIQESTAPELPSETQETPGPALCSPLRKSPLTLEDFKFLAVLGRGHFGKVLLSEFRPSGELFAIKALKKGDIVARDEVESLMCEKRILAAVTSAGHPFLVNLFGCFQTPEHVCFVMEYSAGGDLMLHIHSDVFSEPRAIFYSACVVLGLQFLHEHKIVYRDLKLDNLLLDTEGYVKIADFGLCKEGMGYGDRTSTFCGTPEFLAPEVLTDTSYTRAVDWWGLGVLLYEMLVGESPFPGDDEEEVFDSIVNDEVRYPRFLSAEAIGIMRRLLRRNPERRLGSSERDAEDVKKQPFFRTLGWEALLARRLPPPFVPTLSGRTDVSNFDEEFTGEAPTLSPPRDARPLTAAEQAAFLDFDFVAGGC
# TRAF2 and NCK-interacting protein kinase, sequence (Q9UKE5 whole entry): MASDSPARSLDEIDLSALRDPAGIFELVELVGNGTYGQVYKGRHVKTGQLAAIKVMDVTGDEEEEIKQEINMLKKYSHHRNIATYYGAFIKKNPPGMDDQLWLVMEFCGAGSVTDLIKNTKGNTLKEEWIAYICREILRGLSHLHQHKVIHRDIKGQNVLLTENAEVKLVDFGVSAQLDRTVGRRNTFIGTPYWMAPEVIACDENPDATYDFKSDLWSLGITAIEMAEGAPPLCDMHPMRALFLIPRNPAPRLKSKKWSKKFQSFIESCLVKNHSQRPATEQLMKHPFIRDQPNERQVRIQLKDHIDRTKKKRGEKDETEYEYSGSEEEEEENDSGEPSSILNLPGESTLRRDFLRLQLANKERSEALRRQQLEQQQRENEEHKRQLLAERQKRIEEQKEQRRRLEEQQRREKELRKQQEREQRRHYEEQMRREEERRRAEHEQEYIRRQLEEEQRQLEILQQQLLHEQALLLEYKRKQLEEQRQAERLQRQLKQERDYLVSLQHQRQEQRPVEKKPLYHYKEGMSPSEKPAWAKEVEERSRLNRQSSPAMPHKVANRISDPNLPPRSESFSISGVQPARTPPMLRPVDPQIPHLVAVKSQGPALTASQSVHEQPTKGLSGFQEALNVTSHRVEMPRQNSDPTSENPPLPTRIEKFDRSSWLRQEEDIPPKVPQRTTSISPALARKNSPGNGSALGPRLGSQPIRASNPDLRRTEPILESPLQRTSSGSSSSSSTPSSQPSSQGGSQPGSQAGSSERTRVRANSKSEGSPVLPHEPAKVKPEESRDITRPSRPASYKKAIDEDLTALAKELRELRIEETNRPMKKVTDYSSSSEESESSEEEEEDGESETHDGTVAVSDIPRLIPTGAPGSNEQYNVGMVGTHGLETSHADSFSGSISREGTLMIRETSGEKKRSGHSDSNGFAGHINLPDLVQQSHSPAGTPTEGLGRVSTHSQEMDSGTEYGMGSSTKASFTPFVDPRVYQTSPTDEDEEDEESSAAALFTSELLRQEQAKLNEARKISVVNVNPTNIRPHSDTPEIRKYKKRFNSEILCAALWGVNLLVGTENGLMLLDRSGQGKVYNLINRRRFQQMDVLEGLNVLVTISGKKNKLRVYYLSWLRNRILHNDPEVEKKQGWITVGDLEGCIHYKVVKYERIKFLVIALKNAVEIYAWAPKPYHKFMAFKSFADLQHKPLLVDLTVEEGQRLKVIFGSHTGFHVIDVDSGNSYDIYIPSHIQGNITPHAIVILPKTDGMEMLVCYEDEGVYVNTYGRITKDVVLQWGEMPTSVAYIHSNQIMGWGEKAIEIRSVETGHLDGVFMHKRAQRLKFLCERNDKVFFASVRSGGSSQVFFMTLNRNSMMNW
# Cyclin-dependent kinase 7, sequence (P50613 whole entry): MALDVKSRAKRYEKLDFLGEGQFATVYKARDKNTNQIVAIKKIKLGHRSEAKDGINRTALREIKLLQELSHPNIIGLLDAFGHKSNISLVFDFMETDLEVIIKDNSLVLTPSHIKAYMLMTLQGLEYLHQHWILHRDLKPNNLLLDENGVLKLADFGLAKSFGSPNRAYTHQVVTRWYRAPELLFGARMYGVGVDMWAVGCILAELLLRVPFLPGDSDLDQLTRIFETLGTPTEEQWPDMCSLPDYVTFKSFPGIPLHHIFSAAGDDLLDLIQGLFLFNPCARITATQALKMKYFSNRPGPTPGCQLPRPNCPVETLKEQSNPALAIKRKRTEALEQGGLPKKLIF
# Eukaryotic translation initiation factor 2-alpha kinase 1, sequence (Q9BQI3 whole entry): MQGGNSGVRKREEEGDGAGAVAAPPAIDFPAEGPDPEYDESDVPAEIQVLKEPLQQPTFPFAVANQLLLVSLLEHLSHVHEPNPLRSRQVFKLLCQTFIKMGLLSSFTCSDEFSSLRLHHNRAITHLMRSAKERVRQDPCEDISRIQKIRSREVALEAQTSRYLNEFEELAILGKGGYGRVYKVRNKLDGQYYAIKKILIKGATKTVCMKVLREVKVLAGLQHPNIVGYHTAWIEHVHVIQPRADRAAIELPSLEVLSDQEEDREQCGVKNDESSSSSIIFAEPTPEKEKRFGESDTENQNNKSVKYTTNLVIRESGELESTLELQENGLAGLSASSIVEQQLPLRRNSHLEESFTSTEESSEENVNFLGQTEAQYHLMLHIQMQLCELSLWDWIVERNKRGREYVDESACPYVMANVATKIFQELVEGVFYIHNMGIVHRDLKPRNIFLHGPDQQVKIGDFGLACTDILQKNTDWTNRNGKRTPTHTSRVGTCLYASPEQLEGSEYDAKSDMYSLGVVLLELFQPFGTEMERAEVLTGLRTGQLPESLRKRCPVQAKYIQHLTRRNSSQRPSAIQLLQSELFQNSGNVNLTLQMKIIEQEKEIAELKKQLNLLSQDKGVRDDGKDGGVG
SMILES,Kd [1],Kd [2],Kd [3],Kd [4],Kd [5],Kd [6],Kd [8],Kd [9],Kd [10],Kd [11],Kd [12],Kd [7]
NC(=O)c1ccc(N(C(N)=O)c2c(F)cccc2F)nc1-c1ccc(F)cc1F [VX-702],> 30 µM (inactive),> 30 µM (inactive),> 30 µM (inactive),> 30 µM (inactive),> 30 µM (inactive),> 30 µM (inactive),> 30 µM (inactive),> 30 µM (inactive),> 30 µM (inactive),> 30 µM (inactive),> 30 µM (inactive),> 30 µM (inactive)
Cc1c(NC(=O)OC[C@@H]2COCCN2)cn2ncnc(Nc3ccc4c(cnn4Cc4cccc(F)c4)c3)c12 [AC-480],> 30 µM (inactive),> 30 µM (inactive),> 30 µM (inactive),> 30 µM (inactive),5.93 µM,> 30 µM (inactive),> 30 µM (inactive),> 30 µM (inactive),> 30 µM (inactive),> 30 µM (inactive),> 30 µM (inactive),> 30 µM (inactive)
Cn1cc(-c2[nH]c3cc(NC(=O)[C@H](N)C4CCCCC4)cc4c3c2C=NNC4=O)cn1,> 30 µM (inactive),> 30 µM (inactive),> 30 µM (inactive),> 30 µM (inactive),2.19 µM (active),> 30 µM (inactive),> 30 µM (inactive),0.119 µM (active),> 30 µM (inactive),0.251 µM,> 30 µM (inactive),> 30 µM (inactive)
Cc1cc(Nc2nc(N[C@@H](C)c3ncc(F)cn3)ncc2Cl)n[nH]1 [AZD-1480],> 30 µM (inactive),> 30 µM (inactive),> 30 µM (inactive),> 30 µM (inactive),> 30 µM (inactive),> 30 µM (inactive),> 30 µM (inactive),> 30 µM (inactive),> 30 µM (inactive),> 30 µM (inactive),> 30 µM (inactive),> 30 µM (inactive)
COc1cc(F)c(F)c(Nc2ccc(I)cc2F)c1NS(=O)(=O)C1(C[C@H](O)CO)CC1 [REFAMETINIB],> 30 µM (inactive),> 30 µM (inactive),> 30 µM (inactive),> 30 µM (inactive),> 30 µM (inactive),> 30 µM (inactive),> 30 µM (inactive),> 30 µM (inactive),> 30 µM (inactive),> 30 µM (inactive),> 30 µM (inactive),> 30 µM (inactive)
CN1CCN(c2nc(C3=C(c4c[nH]c5ccccc45)C(=O)NC3=O)c3ccccc3n2)CC1 [SOTRASTAURIN],> 30 µM (inactive),> 30 µM (inactive),> 30 µM (inactive),> 30 µM (inactive),> 30 µM (inactive),> 30 µM (inactive),> 30 µM (inactive),2.95 µM,> 30 µM (inactive),0.038 µM,> 30 µM (inactive),> 30 µM (inactive)
O[C@H]1CC[C@H](Nc2ncc3nc(Nc4c(F)cc(F)cc4F)n([C@H]4CCOC4)c3n2)CC1 [TANZISERTIB],> 30 µM (inactive),> 30 µM (inactive),> 30 µM (inactive),> 30 µM (inactive),> 30 µM (inactive),> 30 µM (inactive),> 30 µM (inactive),> 30 µM (inactive),> 30 µM (inactive),> 30 µM (inactive),> 30 µM (inactive),> 30 µM (inactive)

# Now from value to molecule, other results behind:
Kd [1],Kd [2],Kd [3],Kd [4],Kd [5],Kd [6],Kd [8],Kd [9],Kd [10],Kd [11],Kd [12],SMILES,Kd [7]
> 30 µM (inactive),> 30 µM (inactive),> 30 µM (inactive),> 30 µM (inactive),> 30 µM (inactive),> 30 µM (inactive),> 30 µM (inactive),> 30 µM (inactive),> 30 µM (inactive),> 30 µM (inactive),> 30 µM (inactive),COc1cc2ncnc(Nc3ccc(O)cc3)c2cc1OC [WHI-P131],> 30 µM (inactive)
> 30 µM (inactive),> 30 µM (inactive),> 30 µM (inactive),> 30 µM (inactive),0.972 µM (active),> 30 µM (inactive),> 30 µM (inactive),1.34 µM (active),> 30 µM (inactive),> 30 µM (inactive),> 30 µM (inactive),COc1cccc(Nc2ncnn3ccc(CN4CC[C@@H](N)[C@H](O)C4)c23)c1 [BMS-690514],> 30 µM (inactive)
> 30 µM (inactive),> 30 µM (inactive),> 30 µM (inactive),> 30 µM (inactive),> 30 µM (inactive),> 30 µM (inactive),> 30 µM (inactive),> 30 µM (inactive),> 30 µM (inactive),> 30 µM (inactive),> 30 µM (inactive),O=c1[nH]c([C@@H]2CCCN2)nc2c1oc1ccc(Cl)cc12,> 30 µM (inactive)
> 30 µM (inactive),> 30 µM (inactive),> 30 µM (inactive),> 30 µM (inactive),> 30 µM (inactive),> 30 µM (inactive),> 30 µM (inactive),> 30 µM (inactive),> 30 µM (inactive),> 30 µM (inactive),> 30 µM (inactive),C=CC(=O)Nc1cccc(Nc2nc(Nc3ccc(N4CCN(C(C)=O)CC4)cc3OC)ncc2C(F)(F)F)c1 [ROCILETINIB],> 30 µM (inactive)
> 30 µM (inactive),> 30 µM (inactive),> 30 µM (inactive),> 30 µM (inactive),4.91 µM (active),> 30 µM (inactive),> 30 µM (inactive),> 30 µM (inactive),> 30 µM (inactive),> 30 µM (inactive),> 30 µM (inactive),COc1cccc2cc(-c3nc([C@H]4CC[C@H](C(=O)O)CC4)n4ncnc(N)c34)[nH]c12 [OSI-027],> 30 µM (inactive)
